This is an account of results in article PMC9416303, “Two New Picoline-Derived Meroterpenoids with Anti-Acetylcholinesterase Activity from Ascidian-Derived Fungus Amphichorda felina” (Molecules, 2022).

The IC50 is the point on the concentration scale where inhibition reaches its midpoint. Read a low IC50 as inhibition by little substance.

In this assay the target is acetylcholinesterase (AChE) (Electrophorus electricus, UniProt O42275). The assay can be described thus: modified Ellman's colorimetric assay, commercial AChE (Sigma C3389). Type of assay: biochemical.
Sequence of acetylcholinesterase (AChE) (O42275 24-633): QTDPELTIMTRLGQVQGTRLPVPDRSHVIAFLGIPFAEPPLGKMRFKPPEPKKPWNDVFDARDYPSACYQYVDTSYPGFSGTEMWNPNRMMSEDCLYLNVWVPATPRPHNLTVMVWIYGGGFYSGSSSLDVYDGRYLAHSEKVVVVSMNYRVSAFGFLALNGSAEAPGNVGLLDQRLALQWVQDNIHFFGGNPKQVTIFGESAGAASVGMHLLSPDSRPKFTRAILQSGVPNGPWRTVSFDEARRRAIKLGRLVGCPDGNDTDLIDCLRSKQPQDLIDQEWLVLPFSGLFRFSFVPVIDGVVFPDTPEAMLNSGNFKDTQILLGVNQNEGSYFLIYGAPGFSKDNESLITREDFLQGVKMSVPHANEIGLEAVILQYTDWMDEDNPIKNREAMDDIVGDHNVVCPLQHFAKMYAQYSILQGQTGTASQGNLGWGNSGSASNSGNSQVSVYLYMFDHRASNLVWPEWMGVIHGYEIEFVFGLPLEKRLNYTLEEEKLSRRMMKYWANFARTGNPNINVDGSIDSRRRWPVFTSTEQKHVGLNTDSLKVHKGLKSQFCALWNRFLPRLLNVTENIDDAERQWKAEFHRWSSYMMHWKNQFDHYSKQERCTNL

`C[C@H]1COC(c2cc3c(cn2)OC(C)(C)[C@H](O)C3)=CC1=O` [compound 1, Amphichoterpenoid D]: the IC50 worked out at 12.5 µM.

On to `C[C@@H]1COC(c2cc3c(cn2)OC(C)(C)[C@H](O)C3)=CC1=O` [compound 2, Amphichoterpenoid E], for which the IC50 came out at 11.6 µM.
